{
  "source": "the OPERA property sets (Mansouri et al. 2018)",
  "data": [
    {"values": [
      {"compound": "COC(C)(C)CCCC(C)C/C=C/C(C)=C/C(=O)OC(C)C", "note": "(configuration not stated)", "logP": 5.5},
      {"compound": "CCC(C)NP(=O)(OC)Oc1cc(Cl)c(Cl)cc1Cl", "note": "(configuration not stated)", "logP": 3.99},
      {"compound": "N#Cc1cnc2ccccc2c1", "logP": 1.57},
      {"compound": "CC(O)C(C)O", "note": "(configuration not stated)", "logP": -0.92},
      {"compound": "CS(=O)(=O)Nc1ccccc1", "logP": 0.95},
      {"compound": "C=CCC(NC(C)=O)C(N)=O", "note": "(configuration not stated)", "logP": -0.86},
      {"compound": "O=[N+]([O-])c1cnc2ccccc2c1", "logP": 1.97},
      {"compound": "NC(=O)c1ccc(I)cc1", "logP": 1.99},
      {"compound": "O=C(NN=Cc1ccoc1)Nc1ccccc1", "logP": 2.52},
      {"compound": "CC(C)Cl", "logP": 1.9},
      {"compound": "COCCN(C)c1ccc(Nn2c(C)ccc2C)nn1", "logP": 2.16},
      {"compound": "CC(=O)Oc1ccccc1Br", "logP": 2.2},
      {"compound": "CC1CCC(=O)CC1", "logP": 1.38},
      {"compound": "CNC(=O)CSP(=S)(OC)OC", "logP": 0.78},
      {"compound": "Oc1ccc(Sc2ccc(O)cc2)cc1", "logP": 3.34},
      {"compound": "CC(=O)c1ccccc1O", "logP": 1.92},
      {"compound": "CCCCCC(C)=O", "logP": 1.98},
      {"compound": "COc1ccccc1N(C)C", "logP": 1.63},
      {"compound": "ClCC(Cl)Cl", "logP": 1.89},
      {"compound": "COc1ccc(C(C[N+](=O)[O-])c2ccc(OC)cc2)cc1", "logP": 3.57},
      {"compound": "CN(C)C(N(C)C)=S(I)c1c(Cl)cc(Cl)cc1Cl", "note": "(configuration not stated)", "logP": 0.05},
      {"compound": "O=[N+]([O-])c1ccnc2ccccc12", "logP": 2.06},
      {"compound": "O=C(NO)Nc1ccccc1", "logP": 0.41},
      {"compound": "CCCOC(N)=O", "logP": 0.36},
      {"compound": "O=C(Nc1ccccc1)N(Cc1ccc(Cl)cc1)C1CCCC1", "logP": 4.82},
      {"compound": "O=CNc1ccc(Cl)cc1", "logP": 2.04},
      {"compound": "Cc1cccc(OCC(O)CNC(C)C)c1", "note": "(configuration not stated)", "logP": 1.93},
      {"compound": "O=C(O)c1ccccc1I", "logP": 2.4},
      {"compound": "CN(C)CCOC(=O)c1ccc([N+](=O)[O-])cc1", "logP": 1.7},
      {"compound": "Cc1cccc(C)c1O", "logP": 2.36},
      {"compound": "Nc1ccn(C2CC(O)C(CO)O2)c(=O)n1", "note": "(configuration not stated)", "logP": -1.77},
      {"compound": "CCCCC1OC(=O)c2ccccc21", "note": "(configuration not stated)", "logP": 2.8},
      {"compound": "Clc1ccc2cc[nH]c2c1", "logP": 3.25},
      {"compound": "COP(=S)(OC)Oc1ccc(Sc2ccc(OP(=S)(OC)OC)cc2)cc1", "logP": 5.96},
      {"compound": "OCCNCc1ccccc1", "logP": 0.79},
      {"compound": "CCc1ccc(OC(=O)NC)cc1", "logP": 2.23},
      {"compound": "CCCOC1OC(CO)C(O)C(O)C1O", "note": "(configuration not stated)", "logP": -1.66},
      {"compound": "CN(C)C(=O)Nc1ccc(Cl)cc1", "logP": 1.94},
      {"compound": "COc1cccc(C(C)=O)c1", "logP": 1.84},
      {"compound": "CCCCNc1ccccc1OC", "logP": 2.85},
      {"compound": "NC(CO)C(=O)O", "note": "(configuration not stated)", "logP": -3.07},
      {"compound": "CCN(N=O)C(=O)Nc1ccccc1", "logP": 2.25},
      {"compound": "COc1ccc(Cl)nn1", "logP": 0.89},
      {"compound": "O=S(=O)(Nc1ccccc1)C(F)(F)F", "logP": 3.05},
      {"compound": "Cc1cnc(C)cn1", "logP": 0.63},
      {"compound": "O=NN(CC(F)(F)F)CC(F)(F)F", "logP": 2.15},
      {"compound": "CCC(=O)C1(c2cccc(OC(=O)C(C)(C)C)c2)CCN(C)CC1", "logP": 2.59},
      {"compound": "OC(CF)CF", "logP": -0.36},
      {"compound": "Cc1cc(NC(N)=O)ccc1Br", "logP": 2.49},
      {"compound": "c1ccc(Cc2ccccc2)cc1", "logP": 4.14},
      {"compound": "CC(C)OC(=O)c1cc(O)c(O)c(O)c1", "logP": 1.54},
      {"compound": "C/C=C/C=C/C(=O)O", "logP": 1.33},
      {"compound": "CCCc1ccc(C(=O)OCCN(C)C)cc1", "logP": 3.63},
      {"compound": "CCCNC(C)C(=O)Nc1ccccc1C", "note": "(configuration not stated)", "logP": 2.11},
      {"compound": "O=C1C(=O)c2ccccc2-c2ccccc21", "logP": 2.52},
      {"compound": "CCC(N)Cc1ccccc1", "note": "(configuration not stated)", "logP": 2.28},
      {"compound": "C=CCC1(C(C)CCC)C(=O)NC(=O)NC1=O", "note": "(configuration not stated)", "logP": 1.97},
      {"compound": "Oc1ccccc1C(F)(F)F", "logP": 2.8},
      {"compound": "NS(=O)(=O)Nc1ccccc1", "logP": 0.4},
      {"compound": "CSc1ccccc1", "logP": 2.74},
      {"compound": "NC(=O)Cc1cccs1", "logP": 0.33},
      {"compound": "BrCCCBr", "logP": 2.37},
      {"compound": "O=C(CN1CCCCC1)Nc1cccc(I)c1", "logP": 3.92},
      {"compound": "Oc1cccc2cccnc12", "logP": 2.02},
      {"compound": "CNC(=O)Oc1ccccc1C1OCCO1", "logP": 0.67},
      {"compound": "CC(C)CCn1cnc([N+](=O)[O-])n1", "logP": 1.34},
      {"compound": "CCSCC", "logP": 1.95},
      {"compound": "Nc1ccc(C(=O)Oc2ccccc2)c(O)c1", "logP": 3.15},
      {"compound": "Cc1cc(Cl)ccc1N=CN(C)C", "logP": 2.89},
      {"compound": "COC(=O)CCC(=O)OCC(=O)C1(O)CCC2C3CCC4=CC(=O)CCC4(C)C3C(O)CC21C", "note": "(configuration not stated)", "logP": 2.6},
      {"compound": "Nc1ccc(C(=O)Oc2ccc(F)cc2)c(O)c1", "logP": 3.27},
      {"compound": "O=C(O)Cc1ccc([N+](=O)[O-])cc1", "logP": 1.39},
      {"compound": "CC12CCC(=O)C=C1CCC1C2C(O)CC2(C)C1CCC2(O)C(=O)COC(=O)CCC(N)=O", "note": "(configuration not stated)", "logP": 1.43},
      {"compound": "CCC(Br)C(=O)O", "note": "(configuration not stated)", "logP": 1.42},
      {"compound": "Clc1ccccc1Cl", "logP": 3.43},
      {"compound": "O=C(O)CCC(=O)c1ccc(-c2ccccc2)cc1", "logP": 3.2},
      {"compound": "CNCC(F)(F)F", "logP": 0.55},
      {"compound": "O=Nc1c(Br)cc2ccccc2c1O", "logP": 2.93},
      {"compound": "CNC(=O)OCc1cccc(COC(=O)NC)n1", "logP": 0.24},
      {"compound": "Cn1c(=O)n(C)c2ccccc21", "logP": 1.46},
      {"compound": "CCCCC(C#N)(Cn1ccnc1)c1ccccc1", "note": "(configuration not stated)", "logP": 2.94},
      {"compound": "CCCCCCCOc1ccccc1NC(=O)OCCN1CCCCC1", "logP": 5.62},
      {"compound": "CON(C)C(=O)Nc1ccc(OCCc2ccc(C)cc2)cc1", "logP": 3.81},
      {"compound": "CC(=O)Nc1c(C)cc(O)cc1C", "logP": 0.31},
      {"compound": "NS(=O)(=O)c1cc2c(cc1Cl)NC(CCl)NS2(=O)=O", "note": "(configuration not stated)", "logP": 0.11},
      {"compound": "Nc1cccnc1", "logP": 0.11},
      {"compound": "Fc1cccc(F)n1", "logP": 1.17}
    ]}
  ]
}
